A word on the IC50: it is the concentration that inhibits the measured activity by half. A lower IC50 goes with inhibition by little substance.

For assay [1], the system named is MV-4-11 cells. Description: Assay of inhibiting proliferation of MV-4-11 in vitro (CellTiter-Glo). The format is cell-based. Conditions: Homo sapiens, MV4-11, 72 h, 3 days. The protocol: IMDM medium, fetal bovine serum, and penicillin/streptomycin antibiotics were purchased from Promega (Madison, Wis.). The MV-4-11 cell line was purchased from the Cell Bank of the Chinese Academy of Sciences. Envision Multi-Label Analyzer (PerkinElmer).
MV-4-11 cells were seeded in a white 96-well plate with 80 μL of cell suspension per well containing 10,000 MV-4-11 cells. The cell plate was cultured overnight in a carbon dioxide incubator.
The compounds to be tested were 5-fold serially diluted with a pipette to obtain eight concentrations, i.e., from 2 mmol/L to 26 nmol/L. The assay was carried out in duplicate. 78 μL of medium was added to the intermediate plate, and then 2 μL per well of the serially diluted compounds were transferred to the intermediate plate according to the corresponding position. After mixing, an amount of 20 μL per well was transferred to the cell plate. The cell plate was cultured in a carbon dioxide incubator for 3 days.
25 μL per well of Promega CellTiter-Glo reagent was added to the cell plate and incubated at room temperature for 10 minutes to stabilize the luminescence signal. A PerkinElmer Envision multi-label analyzer was used for reading.
The original data was converted into an inhibition rate, and the IC50 value can be obtained by four-parameter curve fitting.
A general note: ATP-based viability assays read luminescence as a measure of living cells.

The test system of assay [2] is human biphenotypic B bone marrow mononuclear leukemia cell MV4-11 subcutaneous xenograft tumor. Description: Inhibition of MV4-11 subcutaneous xenograft tumor in vivo. Also on record: species or system nude mice. The conditions noted are these: for Average tumor volume Day 25 / Average tumor volume Day 35: then drug withdrawal; for Average tumor volume Day 0: baseline at start of dosing. The procedure: In this assay, the anti-tumor effect of the compounds was evaluated using a nude mice model of subcutaneous xenograft tumor of human biphenotypic B bone marrow mononuclear leukemia cell MV4-11.
Human biphenotypic B bone marrow mononuclear leukemia cell MV4-11 was cultured in vitro in suspension with a RPMI1640 medium supplemented with 10% fetal bovine serum, 100 U/mL penicillin and 100 μg/mL streptomycin in a 5% CO2 cell incubator at 37° C. Routine passaging was performed twice a week. Cells in the logarithmic growth phase were collected, counted and then used for inoculation.
10×10^6 MV4-11 cells were inoculated subcutaneously on the back of the right neck of each mouse, wherein the inoculation volume was 0.2 mL, and the cell suspension was PBS plus matrigel (volume ratio 1:1). The assay of efficacy in vivo was performed on the 13th day after the cell inoculation, at which time the average tumor volume reached 181 mm^3. The mice were randomly divided into groups with 6 mice in each group, and administration to the mice started.
The diameter of the tumor was measured with vernier calipers twice a week. The formula for calculating the tumor volume is: V=0.5a×b^2, where a and b represent the long and short diameters of the tumor, respectively.
After 14 days of administration, the administration was stopped, and the rebound of the tumor was observed.

In assay [3] the test system is human acute myeloma MOLM-13 cell line subcutaneous xenograft. Description: Inhibition of Molm-13 subcutaneous xenograft tumor in vivo. Also on record: species or system NOD/SCID female mice. The conditions noted are these: for Average tumor volume Day 0: baseline. The procedure: The purpose of this assay is to evaluate the pharmacodynamics of the compounds in the NOD/SCID female mice model of human acute myeloma MOLM-13 cell line subcutaneous xenograft.
MOLM-13 cells were cultured in RPMI-1640 medium containing 10% fetal bovine serum. The MOLM-13 cells were collected in the exponential growth phase, and resuspended in PBS to a suitable concentration for subcutaneous tumor inoculation in nude mice.
The assay mice were inoculated with 5×10^6 MOLM-13 cells resuspended in 0.1 ml of PBS (0.1 ml per mouse) subcutaneously on the right back. Tumor growth was regularly observed. When the tumor grew to an average volume of 98 mm^3, the mice were randomly divided into groups and administered according to tumor size and body weight of the mice.
After the start of administration, the body weight and tumor size of the mice were measured three times a week. The formula for calculating the tumor volume is: tumor volume (mm^3)=½×(a×b^2) (where a represents the long diameter and b represents the short diameter).

Setting [4] is: 20 mg/kg oral once a day for 14 days.
[5] abbreviates: 5 mg/kg oral once a day for 14 days.

Molecules are shown by their SMILES.

`CCc1nc(C(N)=O)c(Nc2ccc(N3CCC4(CCN(C)CC4)CC3)c(OC)c2)nc1NC1CCOCC1` [Compound A] came in with an IC50 in assay [1] of 5.4 nM. In assay [2] (20 mg/kg oral once a day), the “% Inhibition rate on day 14” value amounted to 118% and the “Average tumor volume Day 14” value was 39 cubic millimeter. Further, in assay [2] (setting [4]), the “Average tumor volume Day 25” value is 258 cubic millimeter and the “Average tumor volume Day 35” value is given as 988 cubic millimeter. In addition, the “Average tumor volume Day 0” value in assay [2] (20 mg/kg oral once a day group) is given as 181 cubic millimeter.
In turn, `CCc1nc(C(N)=O)c(Nc2ccc(N3CCC(N4CCN(C)CC4)CC3)c(OC)c2)nc1NC1CCOCC1` [Compound B] registered an IC50 in assay [1] of 4.65 nM. In addition, in assay [2] (5 mg/kg oral once a day), the “% Inhibition rate on day 14” value is 118% and the “Average tumor volume Day 14” value is 41 cubic millimeter. Also, in assay [2] (setting [5]), the “Average tumor volume Day 25” value was 320 cubic millimeter and the “Average tumor volume Day 35” value amounted to 1279 cubic millimeter. In addition, the “Average tumor volume Day 0” value in assay [2] (5 mg/kg oral once a day group) turned out to be 181 cubic millimeter.
`CCc1nc(C(N)=O)c(Nc2ccc(N3CCC4(CCN(C)CC4)CC3)c(C)c2)nc1NC1CCOCC1` [Compound of formula (I)]: the entries for the “Average tumor volume Day 11” value in assay [3] (15 mg/kg oral once a day) and in assay [3] (50 mg/kg oral once a day) were 156.85 cubic millimeter and 53.08 cubic millimeter, respectively. Further, the “Average tumor volume Day 15” value turned out to be 223.09 cubic millimeter in assay [3] (15 mg/kg oral once a day) and 0 cubic millimeter in assay [3] (50 mg/kg oral once a day). For the same compound, the “Average tumor volume Day 0” value in assay [3] (15 mg/kg oral once a day group) worked out at 98.34 cubic millimeter; in assay [3] (50 mg/kg oral once a day group) it was 98.05 cubic millimeter.
